For one compound, IC50 results are on record in ChEMBL document CHEMBL1145947, “Generation of bis-cationic heterocyclic inhibitors of Bacillus subtilis HPr kinase/phosphatase from a ditopic dynamic combinatorial library” (J Med Chem, 2003).

Experiment [1] deals with T1, HPr kinase/phosphorylase (Bacillus subtilis (strain 168), UniProt O34483).
T1 sequence (O34483 whole entry): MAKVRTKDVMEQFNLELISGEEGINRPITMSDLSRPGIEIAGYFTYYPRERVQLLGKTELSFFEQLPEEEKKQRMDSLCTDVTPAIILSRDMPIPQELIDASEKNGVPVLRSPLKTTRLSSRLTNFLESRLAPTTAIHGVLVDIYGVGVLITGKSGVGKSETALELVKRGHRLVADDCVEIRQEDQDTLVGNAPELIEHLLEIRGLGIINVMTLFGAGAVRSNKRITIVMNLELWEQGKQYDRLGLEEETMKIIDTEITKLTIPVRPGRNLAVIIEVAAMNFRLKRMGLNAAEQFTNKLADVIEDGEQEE
Description: Inhibition of bifunctional enzyme HPr kinase/phosphatase from Bacillus subtilis at pH 7.0 and hill coefficient of 1.4.

In experiment [2] the target is T1, HPr kinase/phosphorylase. Kind of experiment: Inhibition of bifunctional enzyme HPr kinase/phosphatase from Bacillus subtilis at pH 8.0 and hill coefficient of 2.9.

One may read the IC50 as the point on the concentration scale where inhibition reaches its midpoint. The low end stands for greater potency, the high end for weaker potency.

In the case of `N=c1n(CC(=O)N/N=C/c2ccc(/C=N/NC(=O)Cn3c(=N)n(Cc4ccccc4)c4ccccc43)cc2)c2ccccc2n1Cc1ccccc1`, the values for the IC50 in experiment [1] and in experiment [2] were 17 µM and 18 µM, respectively.
